# According to article PMC11116414, “Impact of secretin receptor homo-dimerization on natural ligand binding” (Nature Communications, 2024):
# No end group written: not given here.
# What was measured:
# WT SecR [1] = target: T1, WT SecR (Homo sapiens, UniProt P47872); assay: KI collisional fluorescence quenching of receptor-bound probes, WT SecR; conditions: KI quencher, mean ± S.E.M., n = 3
# T1 construct: expressed in transfected cells; membranes isolated from CHO-SecR cells
# Method: (§1) Incubations were terminated by separating receptor-bound ligand from free ligand using centrifugation at 25,000 × g for 10 min at 4 °C. The sample pellet was washed again with ice-cold KRH medium and resuspended in KRH medium for fluorescence measurements. The samples were excited at 481 nm and the emission was collected at 521 nm, with a bandwidth of 5 nm at an integration rate of 0.5 nm/s, and fluorescence intensities were collected by constant wavelength single point analysis using SPEX Fluoromax 3 (Horiba Scientific, Piscataway, NJ) with Origin version 8.1.
# (§2) Fluorescence collisional quenching studies were performed using the hydrophilic quenching reagent, potassium iodide (KI), as described previously. Fluorescence intensities of receptor-bound probes were collected by exciting samples at 481 nm using Fluoromax-3 spectrofluorometer single point measurement by Origin version 8.1. […] The effect of ionic strength was determined by measuring fluorescence intensities in potassium chloride. […] The Stern–Volmer quenching constant, KSV, was calculated from the slope of Fo/F as a function of the quencher concentration [I^−].
# WT SecR [2] = target: T1, WT SecR; assay: Fluorescence anisotropy of receptor-bound probes, WT SecR; conditions: SecR WT, membranes, 50 nM probe, mean ± S.E.M., n = 3
# Method: as §1
# SecR(G264A,I268A) [3] = target: T2, SecR(G264A,I268A) (Homo sapiens, UniProt P47872, G264A/I268A); assay: KI collisional fluorescence quenching of receptor-bound probes, mutant SecR; conditions: KI quencher, mean ± S.E.M., n = 3
# T2 construct: expressed in transfected cells; membranes isolated from these cells
# Method: as §1, §2
# SecR(G264A,I268A) [4] = target: T2, SecR(G264A,I268A); assay: Fluorescence anisotropy of receptor-bound probes, mutant SecR; conditions: membranes, 50 nM probe, mean ± S.E.M., n = 3
# Method: as §1
# [5] = tested on: cysteine-containing SecR(G264A,I268A) constructs; assay: Cysteine trapping with SecR(G264A,I268A) cysteine constructs, intact COS-1 cells; assay type: binding, human; conditions: mean ± S.E.M.
# Method: In short, 15 µg of each peptide were incubated with 1 mCi of Na^125I for 15 s in borate buffer (pH 9.0) using solid-state N-chlorobenzene sulfonamide (iodination beads), and radioactive peptide products were separated and purified using reversed-phase HPLC, to yield a mono-iodinated peak with a specific radioactivity of 2000 Ci/mmol.
# Modified secretin receptor constructs were prepared by mutagenesis of human SecR(G264A,I268A) by introducing cysteine residues to replace each natural residue in the N-terminal stalk region, (extracellular loop 1) ECL1, ECL2, and ECL3 regions of the receptor[21]. Mutagenesis was performed using the QuikChange site-directed mutagenesis kit from Stratagene (La Jolla, CA), with the products verified by direct DNA sequencing.
# Cysteine trapping is a technique in which cysteine residues incorporated into distinct positions within a peptide ligand and within its receptor are allowed to form disulfide bonds when two free cysteines are in proximity to each other with necessary distance and geometry. As noted above, this was performed with secretin peptides incorporating cysteines in positions 2, 5, 6 and 7[20],[21], and with a series of SecR mutants incorporating cysteines in all extracellular domains (75 distinct constructs in a TM4 mutant non-dimerizing SecR background). COS-1 cells were grown to approximate 85% confluence in 24-well tissue culture plates, and transfected with cysteine mutant receptor constructs using the PEI method. Assays were started by washing the cells with DMEM containing 5% Fetal Clone II before being incubated with 200 μl radiolabeled cysteine-containing probes (approximately 100,000 cpm per well) for 1.5 h at room temperature. The assays were terminated by washing the cells with ice-cold PBS, pH 7.4, and mixing with 60 µl SDS Laemmli sample buffer not containing dithiothreitol (DTT). Lysates were run on 10% SDS-polyacrylamide gels. Gels were then dried, and bands of interest were visualized by autoradiography, and specific bands were identified, and intensities quantified using ImageJ. Sites having labeling above background were determined using one-way ANOVA with Dunnett’s post-test, with P < 0.001 considered to be significant. The apparent molecular weights of the receptor bands were determined by interpolation with the mobility of the appropriate ProSieve protein markers.
# [6] = +GppNHp (uncoupled state, 10 µM)
# T2 sequence (P47872 23-440 G264A/I268A): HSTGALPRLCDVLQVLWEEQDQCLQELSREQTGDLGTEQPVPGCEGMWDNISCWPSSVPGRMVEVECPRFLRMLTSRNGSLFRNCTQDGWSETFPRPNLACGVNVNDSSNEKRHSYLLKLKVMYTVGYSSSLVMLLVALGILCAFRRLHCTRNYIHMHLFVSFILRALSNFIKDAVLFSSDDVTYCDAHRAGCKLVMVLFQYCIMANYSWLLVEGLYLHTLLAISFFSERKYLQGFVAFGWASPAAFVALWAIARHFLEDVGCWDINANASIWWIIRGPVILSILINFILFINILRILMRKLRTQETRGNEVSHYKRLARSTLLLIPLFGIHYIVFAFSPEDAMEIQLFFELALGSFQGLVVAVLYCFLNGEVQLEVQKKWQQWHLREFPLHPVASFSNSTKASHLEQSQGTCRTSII
# T1 sequence (P47872 23-440): as the sequence (P47872 23-440 G264A/I268A) above, with A242G, A246I counted along it
molecule,measurement,setting,value
CC(C)C[C@H](NC(=O)CNC(=O)[C@H](CCC(N)=O)NC(=O)[C@H](CC(C)C)NC(=O)[C@H](CC(C)C)NC(=O)[C@H](CCCNC(=N)N)NC(=O)[C@H](CCC(N)=O)NC(=O)[C@H](CC(C)C)NC(=O)[C@H](CCCNC(=N)N)NC(=O)[C@H](C)NC(=O)CNC(=O)[C@H](CCC(=O)O)NC(=O)[C@H](CCCNC(=N)N)NC(=O)[C@H](CC(C)C)NC(=O)[C@H](CCCNC(=N)N)NC(=O)[C@H](CO)NC(=O)[C@H](CC(C)C)NC(=O)[C@H](CCC(=O)O)NC(=O)[C@H](CO)NC(=O)[C@@H](NC(=O)[C@H](Cc1ccccc1)NC(=O)[C@@H](NC(=O)CNC(=O)[C@H](CC(=O)O)NC(=O)[C@H](CO)NC(=O)[C@@H](N)Cc1c[nH]cn1)[C@@H](C)O)[C@@H](C)O)C(=O)N[C@H](C(=O)NCC(=O)N[C@@H](CSC1CC(=O)N(CCCCCNC(=O)c2ccc(-c3c4ccc(=N)c(S(=O)(=O)O)c-4oc4c(S(=O)(=O)O)c(N)ccc34)c(C(=O)O)c2)C1=O)C(N)=O)C(C)C (stereo partly drawn) [Sec-Gly^28-(Cys^29-Alexa^488)],Stern-Volmer quenching constant (Ksv),WT SecR [1]; [6],4.9±0.4
same,Stern-Volmer quenching constant (Ksv),"WT SecR [1]; -GppNHp (active state), 50 nM probe, ex 481/em 521 nm",6.2±0.7
same,Anisotropy,"WT SecR [2]; +GppNHp (10 µM), 20 °C",0.13 ± 0.01
same,Anisotropy,"WT SecR [2]; +GppNHp (10 µM), 37 °C",0.08 ± 0.01
same,Anisotropy,"WT SecR [2]; control, 20 °C, KRH pH 7.4, ex 481 nm",0.13 ± 0.01
same,Anisotropy,"WT SecR [2]; control, 37 °C, KRH pH 7.4, ex 481 nm",0.08 ± 0.01
same,Stern-Volmer quenching constant (Ksv),"SecR(G264A,I268A) [3]; [6]",4.2±0.8
same,Stern-Volmer quenching constant (Ksv),"SecR(G264A,I268A) [3]; -GppNHp (active state)",5.6±1.1
same,Anisotropy,"SecR(G264A,I268A) [4]; +GppNHp (10 µM), 20 °C",0.15 ± 0.01
same,Anisotropy,"SecR(G264A,I268A) [4]; +GppNHp (10 µM), 37 °C",0.1 ± 0.01
same,Anisotropy,"SecR(G264A,I268A) [4]; control, 20 °C",0.13 ± 0.01
same,Anisotropy,"SecR(G264A,I268A) [4]; control, 37 °C",0.09 ± 0.01
"Cys^2-[Tyr^10]secretin(1-27) (HCDGTFTSEYSRLREGARLQRLLQGLV; not fully specified; ends and bridges not checked; also: radioiodinated; UniProt P09683 28-54, looked up, variant S2C L10Y) [Cys^2-Sec, cysteine-containing secretin agonist probe, radioiodinated for cysteine trapping]",Intraloop labeling,"[5]; A290C, ECL2, n = 3-5",< 1 percentage
same,Overall labeling,"[5]; A290C, ECL2, n = 3-5",< 1 percentage
same,Intraloop labeling,"[5]; A292C, ECL2, n = 3-5",< 1 percentage
same,Overall labeling,"[5]; A292C, ECL2, n = 3-5, Cys5 significant (P < 0.0001)",< 1 percentage
same,Intraloop labeling,"[5]; A365C, ECL3, n = 3-5",22.5±19.5 percentage
same,Overall labeling,"[5]; A365C, ECL3, n = 3-5, Cys5 significant (P < 0.0001)",21.7±19.6 percentage
same,Intraloop labeling,"[5]; D282C, ECL2, n = 3-5",< 1 percentage
same,Overall labeling,"[5]; D282C, ECL2, n = 3-5",< 1 percentage
same,Intraloop labeling,"[5]; D287C, ECL2, n = 3-5",< 1 percentage
same,Overall labeling,"[5]; D287C, ECL2, n = 3-5",< 1 percentage
same,Intraloop labeling,"[5]; D364C, ECL3, n = 3-5",22.1±19.0 percentage
same,Overall labeling,"[5]; D364C, ECL3, n = 3-5, Cys5 significant (P < 0.0001)",21.3±19.1 percentage
same,Intraloop labeling,"[5]; E281C, ECL2, n = 3-5",< 1 percentage
same,Overall labeling,"[5]; E281C, ECL2, n = 3-5",< 1 percentage
same,Overall labeling,"[5]; E363C, ECL3, n = 3-5",< 1 percentage
same,Intraloop labeling,"[5]; E367C, ECL3, n = 3-5",< 1 percentage
same,Overall labeling,"[5]; E367C, ECL3, n = 3-5",< 1 percentage
same,Intraloop labeling,"[5]; E373C, ECL3, n = 3-5",37.0±22.4 percentage
same,Overall labeling,"[5]; E373C, ECL3, n = 3-5",27.2±18.7 percentage
same,Intraloop labeling,"[5]; F279C, ECL2, % of highest labeling within loop, n = 4 (Cys2), 5 (Cys5, Cys6), 3 (Cys7)",< 1 percentage
same,Overall labeling,"[5]; F279C, ECL2, % of highest-labeled residue across all constructs, n = 4 (Cys2), 5 (Cys5, Cys6), 3 (Cys7)",< 1 percentage
same,Intraloop labeling,"[5]; F358C, ECL3, n = 3-5",36.3±17.6 percentage
same,Overall labeling,"[5]; F358C, ECL3, n = 3-5",29.0±11.6 percentage
same,Intraloop labeling,"[5]; F360C, ECL3, n = 3-5",22.9±8.3 percentage
same,Overall labeling,"[5]; F360C, ECL3, n = 3-5",19.4±6.5 percentage
same,Intraloop labeling,"[5]; F371C, ECL3, n = 3-5",14.7±12.5 percentage
same,Overall labeling,"[5]; F371C, ECL3, n = 3-5",14.5±12.5 percentage
same,Intraloop labeling,"[5]; F372C, ECL3, n = 3-5",33.7±20.5 percentage
same,Overall labeling,"[5]; F372C, ECL3, n = 3-5",23.5±15.3 percentage
same,Intraloop labeling,"[5]; G284C, ECL2, n = 3-5",< 1 percentage
same,Overall labeling,"[5]; G284C, ECL2, n = 3-5",< 1 percentage
same,Intraloop labeling,"[5]; I288C, ECL2, n = 3-5",< 1 percentage
same,Overall labeling,"[5]; I288C, ECL2, n = 3-5, Cys5 and Cys7 significant (P < 0.0001)",< 1 percentage
same,Intraloop labeling,"[5]; I294C, ECL2, n = 3-5",< 1 percentage
same,Overall labeling,"[5]; I294C, ECL2, n = 3-5",< 1 percentage
same,Intraloop labeling,"[5]; I368C, ECL3, n = 3-5",< 1 percentage
same,Overall labeling,"[5]; I368C, ECL3, n = 3-5",< 1 percentage
same,Intraloop labeling,"[5]; L280C, ECL2, n = 3-5",< 1 percentage
same,Overall labeling,"[5]; L280C, ECL2, n = 3-5",< 1 percentage
same,Intraloop labeling,"[5]; L370C, ECL3, n = 3-5",16.6±15.3 percentage
same,Intraloop labeling,"[5]; L374C, ECL3, n = 3-5",40.3±24.4 percentage
same,Overall labeling,"[5]; L374C, ECL3, n = 3-5, Cys5, Cys6, Cys7 significant (P < 0.001)",29.1±19.6 percentage
same,Intraloop labeling,"[5]; N289C, ECL2, n = 3-5",< 1 percentage
same,Overall labeling,"[5]; N289C, ECL2, n = 3-5",< 1 percentage
same,Intraloop labeling,"[5]; N291C, ECL2, n = 3-5",< 1 percentage
same,Overall labeling,"[5]; N291C, ECL2, n = 3-5",< 1 percentage
same,Intraloop labeling,"[5]; Q369C, ECL3, n = 3-5",< 1 percentage
same,Overall labeling,"[5]; Q369C, ECL3, n = 3-5",< 1 percentage
same,Intraloop labeling,"[5]; S293C, ECL2, n = 3-5",< 1 percentage
same,Overall labeling,"[5]; S293C, ECL2, n = 3-5",< 1 percentage
same,Intraloop labeling,"[5]; S361C, ECL3, n = 3-5",< 1 percentage
same,Overall labeling,"[5]; S361C, ECL3, n = 3-5",< 1 percentage
same,Intraloop labeling,"[5]; V283C, ECL2, n = 3-5",< 1 percentage
same,Overall labeling,"[5]; V283C, ECL2, n = 3-5",< 1 percentage
same,Intraloop labeling,"[5]; W286C, ECL2, n = 3-5",< 1 percentage
same,Overall labeling,"[5]; W286C, ECL2, n = 3-5",< 1 percentage
same,Intraloop labeling,"[5]; W295C, ECL2, n = 3-5",100±0 percentage
same,Overall labeling,"[5]; W295C, ECL2, n = 3-5, Cys2, Cys5, Cys7 significant (P < 0.0001)",93.0±7.0 percentage
same,Intraloop labeling,"[5]; W296C, ECL2, n = 3-5",< 1 percentage
same,Overall labeling,"[5]; W296C, ECL2, n = 3-5, Cys6 significant (P = 0.0003)",< 1 percentage
